Measurements: patent US8236523B2, “Camp reporters and high throughput assays” (The Johns Hopkins University, priority 2004, dated 2012)

Legend:
Type in all cases: cell-based
cAMP [1] = assay: Dual-emission ratio (FRET) imaging of Epac-based cAMP reporters (ICUE1 and targeted fusions) in HEK-293 cells; details: HEK293 cells expressing ICUE1, 10 μM ISO, 50 μM FSK
Procedure: Cell Culture. […] Cells were then transfected with FuGENE-6 transfection reagent (Roche) or calcium phosphate and allowed to grow for 12-24 hours before imaging.
Imaging. Cells were washed twice with Hanks' balanced salt solution buffer after 12- to 24-h incubation at 37° C. culture medium. Cells were maintained in buffer in the dark at room temperature with addition of isoproterenol (Aldrich), forskolin (Calbiochem), Prostaglandin E1 (PGE1) (Sigma), and 8-(4-chloro-phenylthio)-2′-O-methyl adenosine 3′,5′-monophosphate (8-pCPT-2′-O-Me-cAMP) (Axxora Biolog) as indicated. Cells were also treated with P-(4,5-dimethoxy-2-nitrobenzyl) adenosine 3′,5′-monophosphate (DMNB-cAMP) (Molecular Probe).
Cells were imaged on a Zeiss Axiovert 200M microscope with a cooled charge-coupled device camera MicroMAX BFT512 (Roper Scientific) controlled by METAFLUOR 6.2 software (Universal Imaging). Dual-emission ratio imaging used a 420DF20 excitation filter, a 450DRLP dichroic mirror and two emission filters (475DF40 for ECFP, 535DF25 for citrine) alternated by a filter changer Lambda 10-2 (Sutter Instruments). Exposure time was 100-500 ms and images were taken every 8-30 s. Fluorescent images were background-corrected by subtracting autofluorescence intensities of untransfected cells (or background with no cells) from the emission intensities of fluorescent cells expressing reporters. The ratios of cyan to yellow emissions were then calculated at different time points and normalized by dividing all ratios by the emission ratio just prior to stimulation therefore setting the basal emission ratio to 1.

cAMP [2] = assay: High throughput 96-well plate assay using ICUE2 stable HEK293 cells
Procedure: HEK293 cells which stably express ICUE2 (“ICUE2 stable HEK293 cells”) were grown to confluency in 10 cm dishes in DMEM, 10% FBS, 1% penicillin/streptomycin, and 250 μg/ml G418. HEK-293 cells were transfected with cDNA encoding ICUE2 using calcium phosphate at 40% confluency and allowed to grow for 40 hours. Cells were removed from the dish using 0.05% trypsin, spun down, and replaced with fresh media. ICUE2 stable HEK293 cells were counted on a hemocytometer using trypan blue stain. One hundred fifty thousand (150,000) cells were plated per well on a 96-well clear bottom assay plate in a total of 0.2 ml of media per […] and allowed to double once. Media was removed, cells were washed with Hanks buffered salt solution (HBSS) and then covered with 0.05 ml of HBSS per well. In a separate sterile plate, appropriate drugs were added to each well containing HBSS for a total volume of 0.05 ml. […] A baseline was established in three cycles, each consisting of a full plate reading of yellow intensity, followed by a reading of cyan intensity. Cells were then treated with isoproterenol (ISO; […] Readings were taken in six or twenty additional cycles. […] Baseline FRET ratios were calculated as the average ratio of yellow/cyan for each well before the addition of drug. FRET change was calculated as the percent increase of FRET ratio over baseline for each well during a given cycle. The FRET changes of all wells having undergone the same drug treatment were then averaged within each cycle, and that cycle was correlated with time.

cAMP [3] = assay: 96-well live cell plate reading of HEK293 cells expressing ICUE3; details: 1 μM ISO, 50 μM FSK
Procedure: Plate reading used a 420DF20 excitation filter and two emission filters (470DF40 for cyan and 535DF25 for yellow). A baseline was established in three cycles, each consisting of a full plate reading of yellow intensity, followed by a reading of cyan intensity. Cells were then treated with isoproterenol (ISO; Aldrich), forskolin (Calbiochem), H89, propranolol, and 3-isobutyl-1-methylxanthine (IBMX) as indicated. Readings were taken in six or twenty additional cycles. Each cycle lasted 60 to 145 sec. Baseline FRET ratios were calculated as the average ratio of yellow/cyan for each well before the addition of drug. FRET change was calculated as the percent increase of FRET ratio over baseline for each well during a given cycle. The FRET changes of all wells having undergone the same drug treatment were then averaged within each cycle, and that cycle was correlated with time.
Live cell plate reading. HEK293 cells were transfected with cDNA encoding ICUE reporters using calcium phosphate at 40% confluency and allowed to grow for 40 hours. Cells were then trypsinized and plated in a Costar 3603 96-well assay plate (Coming) at a density of 150,000 cells per well. After incubation for another 24 hours, cells were washed once with HBSS and left in 150 μl HBSS at 20-25° C. Fluorescence reading was taken on a FLUOstar OPTIMA fluorescence microplate reader (BMG Labtechnologies Inc.) using a 420DF20 excitation filter and two emission filters (470DF40 for cyan and […] for yellow). A baseline was established in three cycles, each consisting of a full plate reading of yellow intensity, followed by a reading of cyan intensity. Each cycle lasted between 64 and 145 seconds. Readings were taken in additional cycles. FRET change was calculated as the percent increase of emission ratios (cyan-to-yellow) over baseline for each well during a given cycle. To assess the efficacy of the assay, several statistical parameters were calculated, including Z factor, coefficient of variation, and signal-to-noise ratio (Zhang et al., J. Biomol. Screen. 4, 67-73, 1999).

`CC(C)NCC(O)c1ccc(O)c(O)c1` (stereo not shown) [isoproterenol] was tested, and the “time to plateau / maximal change in emission ratio” value (cAMP [1]; 10 μM PGE1) was 1.5 to 3 min, the “increase in the ratio of cyan to yellow emissions (FRET response)” value (cAMP [1]; 10 μM PGE1, 300 μM 8-pCPT-2′-O-Me-cAMP, average ± S.E.M) was 16.8%±1.0 and the “character of ICUE2 response (in words)” value (cAMP [2]; 1 μM ISO, 100 μM IBMX, 50 μM FSK) was “transient responses”. For the same molecule, the “Average percent FRET response ± standard deviation, cycle 1” value (cAMP [2]; cycle 1 (1 cycle = 60 seconds), 1 μM Iso, 50 μM Fsk, 10 μM H89, 100 μM IBMX) was 8.22% ± 5.97%, the “Average percent FRET response ± standard deviation, cycle 2” value (cAMP [2]; cycle 2 (1 cycle = 60 seconds), 1 μM Iso, 50 μM Fsk, 10 μM H89, 100 μM IBMX) was 20.2% ± 1.69% and the “Average percent FRET response ± standard deviation, cycle 3” value (cAMP [2]; cycle 3 (1 cycle = 60 seconds), 1 μM Iso, 50 μM Fsk, 10 μM H89, 100 μM IBMX) was 21.59% ± 2.65%. For the same molecule, the “Average percent FRET response ± standard deviation, cycle 4” value (cAMP [2]; cycle 4 (1 cycle = 60 seconds), 1 μM Iso, 50 μM Fsk, 10 μM H89, 100 μM IBMX) was 22.44% ± 2.42%, the “Average percent FRET response ± standard deviation, cycle 5” value (cAMP [2]; cycle 5 (1 cycle = 60 seconds), 1 μM Iso, 50 μM Fsk, 10 μM H89, 100 μM IBMX) was 21.47% ± 2.92% and the “Average percent FRET response ± standard deviation, cycle 6” value (cAMP [2]; cycle 6 (1 cycle = 60 seconds), 1 μM Iso, 50 μM Fsk, 10 μM H89, 100 μM IBMX) was 19.64% ± 1.73. For the same molecule, the “Average percent FRET response ± standard deviation, cycle 7” value (cAMP [2]; cycle 7 (1 cycle = 60 seconds), 1 μM Iso, 50 μM Fsk, 10 μM H89, 100 μM IBMX) was 17.36% ± 1.28%, the “Average percent FRET response ± standard deviation, cycle 8” value (cAMP [2]; cycle 8 (1 cycle = 60 seconds), 1 μM Iso, 50 μM Fsk, 10 μM H89, 100 μM IBMX) was 15.93% ± 2.0% and the “Average percent FRET response ± standard deviation, cycle 9” value (cAMP [2]; cycle 9 (1 cycle = 60 seconds), 1 μM Iso, 50 μM Fsk, 10 μM H89, 100 μM IBMX) was 14.45% ± 3.55%. For the same molecule, the “Average percent FRET response ± standard deviation, cycle 10” value (cAMP [2]; cycle 10 (1 cycle = 60 seconds), 1 μM Iso, 50 μM Fsk, 10 μM H89, 100 μM IBMX) was 11.07% ± 2.19%, the “Average percent FRET response ± standard deviation, cycle 11” value (cAMP [2]; cycle 11 (1 cycle = 60 seconds), 1 μM Iso, 50 μM Fsk, 10 μM H89, 100 μM IBMX) was 6.94% ± 1.93 and the “Average percent FRET response ± standard deviation, cycle 12” value (cAMP [2]; cycle 12 (1 cycle = 60 seconds), 1 μM Iso, 50 μM Fsk, 10 μM H89, 100 μM IBMX) was 2.26% ± 5.45%. The “Average percent FRET response ± standard deviation, cycle 13” value (cAMP [2]; cycle 13 (1 cycle = 60 seconds), 1 μM Iso, 50 μM Fsk, 10 μM H89, 100 μM IBMX) was 2.47% ± 6.06%, the “Average percent FRET response ± standard deviation, cycle 14” value (cAMP [2]; cycle 14 (1 cycle = 60 seconds), 1 μM Iso, 50 μM Fsk, 10 μM H89, 100 μM IBMX) was 2.27% ± 3.37% and the “Average percent FRET response ± standard deviation, cycle 15” value (cAMP [2]; cycle 15 (1 cycle = 60 seconds), 1 μM Iso, 50 μM Fsk, 10 μM H89, 100 μM IBMX) was 1.80% ± 5.84%. The “Average percent FRET response ± standard deviation, cycle 16” value (cAMP [2]; cycle 16 (1 cycle = 60 seconds), 1 μM Iso, 50 μM Fsk, 10 μM H89, 100 μM IBMX) was 1.05% ± 5.87%, the “Average percent FRET response ± standard deviation, cycle 17” value (cAMP [2]; cycle 17 (1 cycle = 60 seconds), 1 μM Iso, 50 μM Fsk, 10 μM H89, 100 μM IBMX) was 1.29% ± 2.72% and the “Average percent FRET response ± standard deviation, cycle 18” value (cAMP [2]; cycle 18 (1 cycle = 60 seconds), 1 μM Iso, 50 μM Fsk, 10 μM H89, 100 μM IBMX) was 1.68% ± 6.12%. For the same molecule, the “Average percent FRET response ± standard deviation, cycle 19” value (cAMP [2]; cycle 19 (1 cycle = 60 seconds), 1 μM Iso, 50 μM Fsk, 10 μM H89, 100 μM IBMX) was 2.52% ± 3.54%, the “Average percent FRET response ± standard deviation, cycle 20” value (cAMP [2]; cycle 20 (1 cycle = 60 seconds), 1 μM Iso, 50 μM Fsk, 10 μM H89, 100 μM IBMX) was 0.93% ± 4.45% and the “character of ICUE3 response (in words)” value (cAMP [3]) was “transient responses”. The “maximal response / emission ratio change” value (cAMP [3]; HEK293 cells expressing ICUE3, n=7) was 8.10%±1.4%.
